According to patent US9416154B2, “5′-substituted nucleoside derivatives and methods of use thereof for the treatment of viral diseases” (priority 2011, dated 2016):

system: HCV replicon (1b); test: Cell-based HCV replicon assay; conditions: Hepatitis C virus, 72 h, read-out: 1b EC50, replicon cells, 3-day incubation, replicon RNA by real time PCR (Taqman)
Experimental: To measure cell-based anti-HCV activity of selected compounds of the present invention, replicon cells were seeded at 5000 cells/well in 96-well collagen I-coated Nunc plates in the presence of the test compound. Various concentrations of test compound, typically in 10 serial 2-fold dilutions, were added to the assay mixture, with the starting concentration ranging from 250 μM to 1 μM. The final concentration of dimethylsulfoxide was 0.5%, fetal bovine serum was 5%, in the assay media. Cells were harvested on day 3 by the addition of 1× cell lysis buffer (Ambion cat #8721). The replicon RNA level was measured using real time PCR (Taqman assay). The amplicon was located in 5B. The PCR primers were: 5B.2F, ATGGACAGGCGCCCTGA (SEQ ID. NO. 1); 5B.2R, […] (SEQ ID. NO. 2); the probe sequence was FAM-labeled CACGCCATGCGCTGCGG (SEQ ID. NO. 3). GAPDH RNA was used as endogenous control and was amplified in the same reaction as NS5B (multiplex PCR) using primers and VIC-labeled probe recommended by the manufacturer (PE Applied Biosystem). The real-time RT-PCR reactions were run on ABI PRISM 7900HT Sequence Detection System using the following program: 48° C. for 30 minutes, 95° C. for 10 minutes, 40 cycles of 95° C. for 15 sec, 60° C. for 1 minute. The ΔCT values (CT5B-CTGAPDH) were plotted against the concentration of test compound and fitted to the sigmoid dose-response model using XLfit4 (MDL). EC50 was defined as the concentration of inhibitor necessary to achieve ΔCT=1 over the projected baseline; EC90 the concentration necessary to achieve ΔCT=3.2 over the baseline. Alternatively, to quantitate the absolute amount of replicon RNA, a standard curve was established by including serially diluted T7 transcripts of replicon RNA in the Taqman assay. All Taqman reagents were from PE Applied Biosystems. Such an assay procedure was described in detail in e.g. Malcolm et al., Antimicrobial Agents and Chemotherapy 50: 1013-1020 (2006).

**Q.** Which EC50 does the source give for CCOC(=O)[C@H](C)NP(=O)(Oc1ccccc1Cl)OC(C)[C@H]1O[C@@H](n2ccc3c(N)ncnc32)[C@](C)(F)[C@@H]1O (stereo partly shown) [Compound 22] here?
**A.** > 100 µM

**Q.** With CCCCOC(=O)[C@H](C)NP(=O)(Oc1cccc2ccccc12)O[C@H](C)[C@H]1O[C@@H](n2cc(F)c3c(N)ncnc32)[C@](C)(O)[C@@H]1O (stereo partly shown) [Compound 4] as the compound, how does the EC50 read?
**A.** > 100 µM

same assay, conditions: Hepatitis C virus, 72 h; replicon cells, 3-day incubation, replicon RNA by real time PCR (Taqman); read-out: 1b EC50

**Q.** Which EC50 does the source give for CC(O)[C@H]1O[C@@H](n2ccc3c(N)ncnc32)[C@](C)(F)[C@@H]1O (stereo partly shown) [Compound 14] here?
**A.** > 100 µM

**Q.** With CC[C@@H](O)[C@H]1O[C@@H](n2ccc3c(N)ncnc32)[C@](C)(O)[C@@H]1O [Compound 7] as the compound, how does the EC50 read?
**A.** > 100 µM

**Q.** With C[C@@H](O)[C@H]1O[C@@H](n2cc(F)c3c(N)ncnc32)[C@](C)(O)[C@@H]1O [Compound 3] as the compound, how does the EC50 read?
**A.** > 100 µM

**Q.** Which EC50 does the source give for CC(O)[C@H]1O[C@@H](n2cc(-c3cc[nH]n3)c3c(N)ncnc32)[C@](C)(F)[C@@H]1O (stereo partly shown) [Compound 33] here?
**A.** > 100 µM

**Q.** Which EC50 does the source give for CC[C@@H](O)[C@H]1O[C@@H](n2cc(F)c3c(N)ncnc32)[C@](C)(O)[C@@H]1O [Compound 5] here?
**A.** 23 µM

same assay, conditions: read-out: 1b EC50; replicon cells, 3-day incubation, replicon RNA by real time PCR (Taqman)

**Q.** For CCCCOC(=O)[C@H](C)NP(=O)(Oc1cccc2ccccc12)OC(C)[C@H]1O[C@@H](n2ccc3c(N)ncnc32)[C@](C)(O)[C@@H]1O (stereo partly shown) [Compound 45], which EC50 is on record?
**A.** 22 µM

**Q.** For CCCCOC(=O)[C@H](C)NP(=O)(Oc1cccc2ccccc12)OC(C)[C@H]1O[C@@H](n2ccc3c(N)ncnc32)[C@](C)(O)[C@@H]1O (stereo partly shown) [Compound 44], which EC50 is on record?
**A.** 2 µM

same assay, conditions: replicon cells, 3-day incubation, replicon RNA by real time PCR (Taqman); read-out: 1b EC50

**Q.** Which EC50 does the source give for C[C@@H](O)C1O[C@@H](n2ccc3c(N)ncnc32)[C@](C)(O)[C@@H]1O (stereo partly shown) [Compound 27] here?
**A.** > 100 µM

**Q.** With C[C@H](O)C1O[C@@H](n2ccc3c(N)ncnc32)[C@](C)(O)[C@@H]1O (stereo partly shown) [Compound 28] as the compound, how does the EC50 read?
**A.** > 100 µM

**Q.** Which EC50 does the source give for C[C@@H](O)C1O[C@@H](n2cc(F)c3c(N)ncnc32)[C@](C)(F)[C@@H]1O (stereo partly shown) [Compound 26] here?
**A.** > 100 µM

**Q.** For CCCCOC(=O)[C@H](C)NP(=O)(Oc1cccc2ccccc12)O[C@H](C)[C@H]1O[C@@H](n2ccc3c(N)ncnc32)[C@](C)(O)[C@@H]1O (stereo partly shown) [Compound 2], which EC50 is on record?
**A.** 33 µM

**Q.** Which EC50 does the source give for CC(O)[C@H]1O[C@@H](n2cc(I)c3c(N)ncnc32)[C@](C)(F)[C@@H]1O (stereo partly shown) [Compound 13] here?
**A.** 58 µM

**Q.** With C[C@@H](O)[C@H]1O[C@@H](n2ccc3c(N)ncnc32)[C@](C)(O)[C@@H]1O [Compound 1] as the compound, how does the EC50 read?
**A.** 61 µM

**Q.** With CC(C)(O)[C@H]1O[C@@H](n2ccc3c(N)ncnc32)[C@](C)(F)[C@@H]1O [Compound 30] as the compound, how does the EC50 read?
**A.** > 100 µM

**Q.** For CC(O)C1O[C@@H](n2cc(F)c3c(N)ncnc32)[C@](C)(F)[C@@H]1O (stereo partly shown) [Compound 24], which EC50 is on record?
**A.** > 100 µM

**Q.** With C[C@H](O)[C@H]1O[C@@H](n2cc(F)c3c(N)ncnc32)[C@](C)(O)[C@@H]1O [Compound 9] as the compound, how does the EC50 read?
**A.** > 100 µM

**Q.** With CCOC(=O)[C@H](C)NP(=O)(Oc1ccccc1)OC(C)[C@H]1O[C@@H](n2ccc3c(N)ncnc32)[C@](C)(F)[C@@H]1O (stereo partly shown) [Compound 16] as the compound, how does the EC50 read?
**A.** > 100 µM

**Q.** For C[C@H](O)C1O[C@@H](n2cc(F)c3c(N)ncnc32)[C@](C)(F)[C@@H]1O (stereo partly shown) [Compound 25], which EC50 is on record?
**A.** > 100 µM

system: Huh 7 hepatoma cells containing the subgenomic HCV replicon; test: Cytotoxicity (MTS assay or GAPDH RNA readout); type: cell-based; conditions: not given
Experimental: (§1) The effect of the nucleoside derivatives on the proliferation and metabolism of Huh 7 hepatoma cells containing the subgenomic HCV replicon was measured using the MTS assay. Briefly, cells were seeded and dosed with compounds exactly as described in Example 13 above, for replicon EC50 determination. After a 3-day compound incubation period, the MTS assay was performed in accordance with the manufacturer's protocol for the CellTiter 96 Aqueous One Solution Cell Proliferation Assay (Promega, Catalog #G358). Alternatively, after a 3-day compound incubation, the amount of glyceraldehyde-3-phosphate dehydrogenase (GAPDH) RNA in replicon-containing Huh 7 cells was determined using qRT-PCR. CC50 values were derived from 10 serial 2-fold dilutions of the inhibitor in duplicate that yielded 50% inhibition of the MTS or GAPDH RNA readout by comparison with cells treated with vehicle control.

**Q.** For C[C@H](O)C1O[C@@H](n2ccc3c(N)ncnc32)[C@](C)(O)[C@@H]1O (stereo partly shown) [Compound 28], which CC50 is on record?
**A.** > 100 µM

**Q.** With C[C@@H](O)C1O[C@@H](n2cc(F)c3c(N)ncnc32)[C@](C)(F)[C@@H]1O (stereo partly shown) [Compound 26] as the compound, how does the CC50 read?
**A.** > 100 µM

**Q.** For CC(O)[C@H]1O[C@@H](n2cc(I)c3c(N)ncnc32)[C@](C)(F)[C@@H]1O (stereo partly shown) [Compound 13], which CC50 is on record?
**A.** 30 µM

**Q.** Which CC50 does the source give for C[C@@H](O)[C@H]1O[C@@H](n2ccc3c(N)ncnc32)[C@](C)(O)[C@@H]1O [Compound 1] here?
**A.** 78 µM

**Q.** With CC(C)(O)[C@H]1O[C@@H](n2ccc3c(N)ncnc32)[C@](C)(F)[C@@H]1O [Compound 30] as the compound, how does the CC50 read?
**A.** > 100 µM

**Q.** Which CC50 does the source give for C[C@H](O)[C@H]1O[C@@H](n2cc(F)c3c(N)ncnc32)[C@](C)(O)[C@@H]1O [Compound 9] here?
**A.** > 100 µM

**Q.** Which CC50 does the source give for CCOC(=O)[C@H](C)NP(=O)(Oc1ccccc1)OC(C)[C@H]1O[C@@H](n2ccc3c(N)ncnc32)[C@](C)(F)[C@@H]1O (stereo partly shown) [Compound 16] here?
**A.** > 100 µM

same assay, conditions: replicon-containing Huh 7 cells, 3-day incubation, MTS or GAPDH RNA readout; read-out: 1b CC50

**Q.** With C[C@@H](O)C1O[C@@H](n2ccc3c(N)ncnc32)[C@](C)(O)[C@@H]1O (stereo partly shown) [Compound 27] as the compound, how does the CC50 read?
**A.** > 100 µM

**Q.** Which CC50 does the source give for CCCCOC(=O)[C@H](C)NP(=O)(Oc1cccc2ccccc12)OC(C)[C@H]1O[C@@H](n2ccc3c(N)ncnc32)[C@](C)(O)[C@@H]1O (stereo partly shown) [Compound 45] here?
**A.** > 100 µM

**Q.** Which CC50 does the source give for CCCCOC(=O)[C@H](C)NP(=O)(Oc1cccc2ccccc12)O[C@H](C)[C@H]1O[C@@H](n2ccc3c(N)ncnc32)[C@](C)(O)[C@@H]1O (stereo partly shown) [Compound 2] here?
**A.** 44 µM

**Q.** For CC(O)C1O[C@@H](n2cc(F)c3c(N)ncnc32)[C@](C)(F)[C@@H]1O (stereo partly shown) [Compound 24], which CC50 is on record?
**A.** > 100 µM

**Q.** Which CC50 does the source give for C[C@H](O)C1O[C@@H](n2cc(F)c3c(N)ncnc32)[C@](C)(F)[C@@H]1O (stereo partly shown) [Compound 25] here?
**A.** > 100 µM

system: not listed separately; test: Cytotoxicity (MTS assay or GAPDH RNA readout); type: cell-based; conditions: human, replicon-containing Huh 7 cells, 3-day incubation, MTS or GAPDH RNA readout; read-out: 1b CC50
Experimental: as §1

**Q.** For CC(O)[C@H]1O[C@@H](n2ccc3c(N)ncnc32)[C@](C)(F)[C@@H]1O (stereo partly shown) [Compound 14], which CC50 at 3 day is on record?
**A.** > 100 µM

**Q.** Which CC50 at 3 day does the source give for CC[C@@H](O)[C@H]1O[C@@H](n2ccc3c(N)ncnc32)[C@](C)(O)[C@@H]1O [Compound 7] here?
**A.** > 100 µM

**Q.** Which CC50 at 3 day does the source give for C[C@@H](O)[C@H]1O[C@@H](n2cc(F)c3c(N)ncnc32)[C@](C)(O)[C@@H]1O [Compound 3] here?
**A.** > 100 µM

**Q.** Which CC50 at 3 day does the source give for CC(O)[C@H]1O[C@@H](n2cc(-c3cc[nH]n3)c3c(N)ncnc32)[C@](C)(F)[C@@H]1O (stereo partly shown) [Compound 33] here?
**A.** > 100 µM

**Q.** For CC[C@@H](O)[C@H]1O[C@@H](n2cc(F)c3c(N)ncnc32)[C@](C)(O)[C@@H]1O [Compound 5], which CC50 at 3 day is on record?
**A.** 24 µM

**Q.** With CCCCOC(=O)[C@H](C)NP(=O)(Oc1cccc2ccccc12)OC(C)[C@H]1O[C@@H](n2ccc3c(N)ncnc32)[C@](C)(O)[C@@H]1O (stereo partly shown) [Compound 44] as the compound, how does the CC50 at 3 day read?
**A.** 51 µM

**Q.** For CCOC(=O)[C@H](C)NP(=O)(Oc1ccccc1Cl)OC(C)[C@H]1O[C@@H](n2ccc3c(N)ncnc32)[C@](C)(F)[C@@H]1O (stereo partly shown) [Compound 22], which CC50 at 3 day is on record?
**A.** > 100 µM

**Q.** With CCCCOC(=O)[C@H](C)NP(=O)(Oc1cccc2ccccc12)O[C@H](C)[C@H]1O[C@@H](n2cc(F)c3c(N)ncnc32)[C@](C)(O)[C@@H]1O (stereo partly shown) [Compound 4] as the compound, how does the CC50 at 3 day read?
**A.** 84 µM
